For test [1], the system named is colon adenocarcinoma (LoVo) cells. Nature of the test: MTT proliferation assay, colon. The settings on record: Homo sapiens, Tumor Cell Colon (LoVo), 120 hours, read-out: Anti-proliferative IC-50. The format is cell-based, Human. (Tetrazolium dyes change colour on reduction, which living cells bring about.)
Test [2] relates to glioblastoma (U-87 MG) cells. As to the kind of experiment: MTT proliferation assay, glioblastoma. The format is cell-based. To be noted: Homo sapiens, Tumor Cell Glioblastoma (U-87 MG), 120 hours, read-out: Anti-proliferative IC-50.
Another test concerns HSP90:Eef2k. Nature of the test: Protein-fragment complementation assay Hsp90:Eef2k. The format is cell-based, human. The source says:
To construct dynamic assays for protein-protein complexes, we used a protein-fragment complementation assay strategy (PCAs) in intact human cells. (A variety of other suitable assays, and reporter options, are described in detail below.) The principle of PCA is that complementary polypeptide fragments (F[1] and F[2]) of a reporter protein or enzyme will fold into an active form only if fused to two proteins which interact and bring the complementary fragments of the reporter protein into proximity. Reconstitution of the fragments of the reporter protein generates a fluorescent signal that can be quantified in intact cells, and the amount of the signal is proportional to the amount of the protein-protein complex used in constructing the assay. Given a suitable reporter type, the subcellular location of the complex can also be measured.
Reporter fragments for PCA were generated by oligonucleotide synthesis (Blue Heron Biotechnology, Bothell, Wash.), starting with the sequence of yellow fluorescent protein (YFP). First, oligonucleotides coding for polypeptide fragments YFP[1]and YFP[2] […] Next, PCR mutagenesis was used to generate the mutant fragments IFP[1] and IFP[2]. The IFP[1] fragment corresponds to YFP[1]-(F46L, F64L, M153T) and the IFP[2] fragment corresponds to YFP[2]-(V163A, S175G). […] The YFP[1], YFP[2], IFP[1] and IFP[2] fragments were amplified by PCR to incorporate restriction sites and a linker sequence, described below, in configurations that would allow fusion of a gene of interest to either the 5′- or 3′-end of each reporter fragment. The reporter-linker fragment cassettes were subcloned into a mammalian expression vector (pcDNA3.1Z, Invitrogen) that had been modified to incorporate the replication origin (oriP) of the Epstein Barr virus (EBV). […] Additionally, these vectors still retain the SV40 origin, allowing for episomal expression in cell lines expressing the SV40 large T antigen (e.g. HEK293T, Jurkat or COS). […]

`O=C(Nc1ccc([N+](=O)[O-])cc1Cl)c1cc(Cl)ccc1O` [Niclosamide]: the IC50 in test [1] was 450 nM; in test [2] it was 810 nM. For the same compound, the “level of HSP90:Eef2k complexes (intensity of the fluorescence)” value in the test with HSP90:Eef2k (FIG. 3D) is “decrease in the level”. Further, the Assay activity entry in the test on HSP90:Eef2k (hit in HSP90/Eef2k assay, drugs screened at 10 micromolar) is “HSP90/Eef2k,”.

The values are drawn from patent US20060094059A1, “Methods for identifying new drug leads and new therapeutic uses for known drugs” (Odyssey Thera, Inc., priority 2004, published 2006).
